Results reported in the supplement of paper PMC11451515.

Tested on: NOMO1
Assay: cell viability relative to DMSO control; higher = less cytotoxic
Conditions: 48 h
Method in brief: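 Three leukemia lines were tested: NOMO1 and SEM at 500 cells/well and P12-Ichikawa at 1000 cells/well. Each was adapted for at least four passages in each medium and seeded in 5 μl in 1536-well plates, and library compounds in DMSO were pin-dosed from 47 μM to 0.79 nM in 11 threefold steps. After 48 h at 37°C, CellTiter-Glo One luminescence was read. Viability is a percentage relative to DMSO wells on each plate, with cell-free wells as background.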

[1] = HPLM + 10% dialyzed FBS, 0.000781 µM
[2] = HPLM + 10% dialyzed FBS, 0.00234 µM
[3] = HPLM + 10% dialyzed FBS, 0.00702 µM
[4] = HPLM + 10% dialyzed FBS, 0.0211 µM
[5] = HPLM + 10% dialyzed FBS, 0.0632 µM
[6] = HPLM + 10% dialyzed FBS, 0.19 µM
[7] = HPLM + 10% dialyzed FBS, 0.569 µM
[8] = HPLM + 10% dialyzed FBS, 1.71 µM
[9] = HPLM + 10% dialyzed FBS, 5.12 µM
[10] = HPLM + 10% dialyzed FBS, 15.4 µM
[11] = HPLM + 10% dialyzed FBS, 46.1 µM
[12] = RPMI 5 mM glucose + 10% FBS, 0.000781 µM
[13] = RPMI 5 mM glucose + 10% FBS, 0.00234 µM
[14] = RPMI 5 mM glucose + 10% FBS, 0.00702 µM
[15] = RPMI 5 mM glucose + 10% FBS, 0.0211 µM
[16] = RPMI 5 mM glucose + 10% FBS, 0.0632 µM
[17] = RPMI 5 mM glucose + 10% FBS, 0.19 µM
[18] = RPMI 5 mM glucose + 10% FBS, 0.569 µM
[19] = RPMI 5 mM glucose + 10% FBS, 1.71 µM
[20] = RPMI 5 mM glucose + 10% FBS, 5.12 µM
[21] = RPMI 5 mM glucose + 10% FBS, 15.4 µM
[22] = RPMI 5 mM glucose + 10% FBS, 46.1 µM
[23] = RPMI 5 mM glucose + 10% dialyzed FBS, 0.000781 µM
[24] = RPMI 5 mM glucose + 10% dialyzed FBS, 0.00234 µM
[25] = RPMI 5 mM glucose + 10% dialyzed FBS, 0.00702 µM
[26] = RPMI 5 mM glucose + 10% dialyzed FBS, 0.0211 µM
[27] = RPMI 5 mM glucose + 10% dialyzed FBS, 0.0632 µM
[28] = RPMI 5 mM glucose + 10% dialyzed FBS, 0.19 µM
[29] = RPMI 5 mM glucose + 10% dialyzed FBS, 0.569 µM
[30] = RPMI 5 mM glucose + 10% dialyzed FBS, 1.71 µM
[31] = RPMI 5 mM glucose + 10% dialyzed FBS, 5.12 µM
[32] = RPMI 5 mM glucose + 10% dialyzed FBS, 15.4 µM
[33] = RPMI 5 mM glucose + 10% dialyzed FBS, 46.1 µM

Compound `OC[C@H]1OCC(O1)[N@@]2C=CC(N)=NC2=O` (stereo partly drawn) has a cell viability [1] of 115%, a cell viability [2] of 127% and a cell viability [3] of 101%. It also gave a cell viability [4] of 105%, a cell viability [5] of 117% and a cell viability [6] of 113%. For the same compound, the cell viability [7] was 131%, the cell viability [8] was 86.7% and the cell viability [9] was 121%. For the same compound, the cell viability [10] was 126%, the cell viability [11] was 94.8% and the cell viability [12] was 114%. It also gave a cell viability [13] of 123%, a cell viability [14] of 118% and a cell viability [15] of 116%. It also gave a cell viability [16] of 114%, a cell viability [17] of 127% and a cell viability [18] of 118%. The cell viability [19] was 113%, the cell viability [20] was 122% and the cell viability [21] was 108%. The cell viability [22] was 108%, the cell viability [23] was 103% and the cell viability [24] was 133%. The cell viability [25] was 112%, the cell viability [26] was 109% and the cell viability [27] was 125%. For the same compound, the cell viability [28] was 111%, the cell viability [29] was 117% and the cell viability [30] was 113%. For the same compound, the cell viability [31] was 120%, the cell viability [32] was 113% and the cell viability [33] was 113%.
In the case of `CC/1=C(/N2[C@H](SC1)[C@H](NC(=O)[C@H](N)\C3=C\C\C=C/C3)C2=O)C(O)=O`, the cell viability [1] is reported as 97.5%, the cell viability [2] is reported as 110% and the cell viability [3] is reported as 103%. It also gave a cell viability [4] of 109%, a cell viability [5] of 108% and a cell viability [6] of 121%. It also gave a cell viability [7] of 123%, a cell viability [8] of 135% and a cell viability [9] of 121%. The cell viability [10] was 115%, the cell viability [11] was 121% and the cell viability [12] was 110%. For the same compound, the cell viability [13] was 119%, the cell viability [14] was 114% and the cell viability [15] was 118%. For the same compound, the cell viability [16] was 119%, the cell viability [17] was 124% and the cell viability [18] was 109%. For the same compound, the cell viability [19] was 117%, the cell viability [20] was 129% and the cell viability [21] was 125%. The cell viability [22] was 127%, the cell viability [23] was 102% and the cell viability [24] was 109%. It also gave a cell viability [25] of 104%, a cell viability [26] of 124% and a cell viability [27] of 115%. The cell viability [28] was 108%, the cell viability [29] was 114% and the cell viability [30] was 121%. For the same compound, the cell viability [31] was 126%, the cell viability [32] was 109% and the cell viability [33] was 118%.
With `Cn1c(CNc2ccc(C(=N)N)cc2)nc2cc(C(=O)N(CCC(=O)O)c3ccccn3)ccc21` the cell viability [1] was 109%, the cell viability [2] was 106% and the cell viability [3] was 103%. It also gave a cell viability [4] of 109%, a cell viability [5] of 103% and a cell viability [6] of 95.5%. It also gave a cell viability [7] of 116%, a cell viability [8] of 119% and a cell viability [9] of 125%. For the same compound, the cell viability [10] was 124%, the cell viability [11] was 111% and the cell viability [12] was 92%. For the same compound, the cell viability [13] was 92.8%, the cell viability [14] was 94.6% and the cell viability [15] was 95.5%. The cell viability [16] was 99.3%, the cell viability [17] was 98.7% and the cell viability [18] was 97.7%. For the same compound, the cell viability [19] was 109%, the cell viability [20] was 97.3% and the cell viability [21] was 103%. For the same compound, the cell viability [22] was 111%, the cell viability [23] was 94.5% and the cell viability [24] was 91.3%. For the same compound, the cell viability [25] was 95.9%, the cell viability [26] was 93.8% and the cell viability [27] was 113%. It also gave a cell viability [28] of 99.6%, a cell viability [29] of 94% and a cell viability [30] of 104%. It also gave a cell viability [31] of 96%, a cell viability [32] of 110% and a cell viability [33] of 116%.
`Cc1cn([C@@H]2O[C@H](CO)[C@@H](O)[C@@H]2F)c(=O)[nH]c1=O` was tested, and the cell viability [12] was 93.5%, the cell viability [13] was 108% and the cell viability [14] was 102%. It also gave a cell viability [15] of 117%, a cell viability [16] of 114% and a cell viability [17] of 121%. For the same compound, the cell viability [18] was 110%, the cell viability [19] was 115% and the cell viability [20] was 109%. It also gave a cell viability [21] of 113%, a cell viability [22] of 29% and a cell viability [23] of 86.1%. The cell viability [24] was 120%, the cell viability [25] was 114% and the cell viability [26] was 108%. The cell viability [27] was 123%, the cell viability [28] was 119% and the cell viability [29] was 127%. For the same compound, the cell viability [30] was 120%, the cell viability [31] was 103% and the cell viability [32] was 126%. The cell viability [33] was 22.4%.
Compound `COc1cc2ncnc(Nc3cc(Br)c(O)c(Br)c3)c2cc1OC` has a cell viability [1] of 95.8%, a cell viability [2] of 91% and a cell viability [3] of 114%. It also gave a cell viability [4] of 112%, a cell viability [5] of 107% and a cell viability [6] of 102%. The cell viability [7] was 120%, the cell viability [8] was 119% and the cell viability [9] was 97.2%. The cell viability [10] was 111%, the cell viability [11] was 85.6% and the cell viability [12] was 99.5%. The cell viability [13] was 115%, the cell viability [14] was 99.8% and the cell viability [15] was 103%. It also gave a cell viability [16] of 118%, a cell viability [17] of 113% and a cell viability [18] of 109%. For the same compound, the cell viability [19] was 109%, the cell viability [20] was 107% and the cell viability [21] was 110%. For the same compound, the cell viability [22] was 106%, the cell viability [23] was 92.4% and the cell viability [24] was 99.7%. For the same compound, the cell viability [25] was 99.3%, the cell viability [26] was 107% and the cell viability [27] was 105%. The cell viability [28] was 96.8%, the cell viability [29] was 108% and the cell viability [30] was 112%. It also gave a cell viability [31] of 103%, a cell viability [32] of 104% and a cell viability [33] of 98.2%.
For `NC/1=N/C2=C([NH]C=N2)C(=S)N1`, the cell viability [1] was 107%, the cell viability [2] was 121% and the cell viability [3] was 121%. It also gave a cell viability [4] of 133%, a cell viability [5] of 131% and a cell viability [6] of 115%. It also gave a cell viability [7] of 122%, a cell viability [8] of 137% and a cell viability [9] of 126%. For the same compound, the cell viability [10] was 145%, the cell viability [11] was 35.1% and the cell viability [12] was 111%. For the same compound, the cell viability [13] was 119%, the cell viability [14] was 123% and the cell viability [15] was 119%. It also gave a cell viability [16] of 113%, a cell viability [17] of 115% and a cell viability [18] of 117%. The cell viability [19] was 120%, the cell viability [20] was 109% and the cell viability [21] was 101%. For the same compound, the cell viability [22] was 27.6%.
`CC(C)C(=O)Nc1ccc([N+](=O)[O-])c(C(F)(F)F)c1` showed a cell viability [1] of 118%, a cell viability [2] of 120% and a cell viability [3] of 118%. It also gave a cell viability [4] of 128%, a cell viability [5] of 140% and a cell viability [6] of 137%. The cell viability [7] was 44%, the cell viability [8] was 39.3% and the cell viability [9] was 39%. The cell viability [10] was 42.3% and the cell viability [11] was 41.3%.
In the case of `Cc1cc(C(C)(C)C)c(O)c(C)c1CC1=NCCN1`, the cell viability [1] is reported as 90.1%, the cell viability [2] is reported as 99.5% and the cell viability [3] is reported as 103%. It also gave a cell viability [4] of 103%, a cell viability [5] of 101% and a cell viability [6] of 108%. It also gave a cell viability [7] of 105%, a cell viability [8] of 107% and a cell viability [9] of 83.8%. It also gave a cell viability [10] of 55%, a cell viability [11] of 43.4% and a cell viability [12] of 91.6%. The cell viability [13] was 97.3%, the cell viability [14] was 99.1% and the cell viability [15] was 90%. It also gave a cell viability [16] of 86.2%, a cell viability [17] of 105% and a cell viability [18] of 90.8%. For the same compound, the cell viability [19] was 97.8%, the cell viability [20] was 88.9% and the cell viability [21] was 56.4%. For the same compound, the cell viability [22] was 43.2%, the cell viability [23] was 78% and the cell viability [24] was 85.6%. It also gave a cell viability [25] of 91.8%, a cell viability [26] of 97.4% and a cell viability [27] of 100%. For the same compound, the cell viability [28] was 100%, the cell viability [29] was 97% and the cell viability [30] was 93.2%. For the same compound, the cell viability [31] was 101%, the cell viability [32] was 61.2% and the cell viability [33] was 54.1%.
`COc1cc2ncnc(Nc3ccc(F)c(Cl)c3)c2cc1NC(=O)/C=C/CN1CCCCC1` was tested, and the cell viability [1] was 92.2%, the cell viability [2] was 105% and the cell viability [3] was 114%. It also gave a cell viability [4] of 102%, a cell viability [5] of 108% and a cell viability [6] of 118%. The cell viability [7] was 81.9%, the cell viability [8] was 81.8% and the cell viability [9] was 72.1%. The cell viability [10] was 65.6%, the cell viability [11] was 41.5% and the cell viability [12] was 86.4%. It also gave a cell viability [13] of 93.7%, a cell viability [14] of 91.1% and a cell viability [15] of 86.3%. It also gave a cell viability [16] of 98.4%, a cell viability [17] of 84.9% and a cell viability [18] of 89.6%. For the same compound, the cell viability [19] was 88.4%, the cell viability [20] was 89.1% and the cell viability [21] was 91.7%. For the same compound, the cell viability [22] was 75.5%, the cell viability [23] was 95.7% and the cell viability [24] was 97.7%. It also gave a cell viability [25] of 93.6%, a cell viability [26] of 85.4% and a cell viability [27] of 91.3%. The cell viability [28] was 96.6%, the cell viability [29] was 85.1% and the cell viability [30] was 95.2%. For the same compound, the cell viability [31] was 78.3%, the cell viability [32] was 65.6% and the cell viability [33] was 72.9%.
